From PMC11996864, “A small-molecule inhibitor of BCL10-MALT1 interaction abrogates progression of diffuse large B cell lymphoma” (The Journal of Clinical Investigation, 2025)
Values joined by “and” are separate entries in the source; they are usually repeats but may differ in a detail not shown here. Equal entries are not always repeated.

Legend:
TMD8 cells = experiment: IL-6 and IL-10 secretion, cytokine ELISA; format: cell-based, human; conditions: for IL-6 and IL-10 secretion: TMD8, result in words
Procedure: (§1) Cytokine ELISAs. Cytokines in cell culture supernatants were measured 20-24h after treatment with 0, 0.01, 0.03, 0.1, 0.3, 1, or 3 µM of compounds using the following ELISA kits according to the manufacturer’s instructions: Human IL-2 ELISA (BioLegend Cat# 431804), Human IL-6 ELISA (BioLegend Cat# 430504), and Human IL-10 ELISA (BioLegend Cat# 430604). […]

OCI-Ly3 cells [1] = experiment: IL-6 and IL-10 secretion, cytokine ELISA; format: cell-based, human; conditions: for IL-6 and IL-10 secretion: OCI-Ly3, result in words; for IL-6 protein (normalized) / IL-10 protein (normalized): OCI-Ly3 cells, individual replicates n=3
Procedure: as §1

OCI-Ly3 cells [2] = experiment: cells; set-up: species or system TMD8 or OCI-Ly3; Inhibition of spontaneous IL-10 secretion from ABC-DLBCL cells, human IL-10 ELISA of supernatants; conditions: Homo sapiens, OCI-Ly3, 20 h; IL-10 secretion; read-out: IC50 (µM) IL-10 inhibition
Procedure: Cytokine ELISAs. Cytokines in cell culture supernatants were measured 20-24h after treatment with 0, 0.01, 0.03, 0.1, 0.3, 1, or 3 µM of compounds using the following ELISA kits according to the manufacturer’s instructions: Human IL-2 ELISA (BioLegend Cat# 431804), Human IL-6 ELISA (BioLegend Cat# 430504), and Human IL-10 ELISA (BioLegend Cat# 430604). TMD8 and OCI-Ly3 cells were treated with specific doses of compounds in serum-free media for 20 hours. Jurkat T cells were pretreated with specific doses of compounds for 8 hours in serum-free media, then stimulated with PMA/ionomycin for 16 hours prior to the collection of supernatants. Mouse splenocytes were isolated from spleens of C57/BL6 mice by passing spleens through a 70 micron filter followed by red blood cell lysis using ACK lysing buffer (Quality Biologics, Cat# 118-156-101). […] Supernatant was collected at 24 hours and mouse IL-2 levels were analyzed via ELISA (R&D Systems, Cat# DY402-05). IL-6 and IL-10 are NF-κB–induced cytokines that promote the proliferation and survival of malignant B cells through both autocrine and paracrine mechanisms ([44]), and are negative prognostic factors in ABC-DLBCL ([45], [46]). ABC-DLBCL cell lines spontaneously secrete substantial levels of IL-6 and IL-10, whereas GCB-DLBCL cell lines express only a negligible amount of these cytokines ([24]). […] The IC50 for inhibition of cytokine secretion by each compound in each cell line is reported in Supplemental Table 1.  Figure 4 M1i-124 and M1i-124d1 inhibit MALT1 protease and scaffolding functions, and MALT1-dependent cytokine secretion, in ABC-DLBCL cells. (A and B) Effect of 1 μM compound pretreatment on constitutive RelB cleavage (A) and IκB phosphorylation (B) within TMD8 cells. Representative Western blots are shown along with quantification (mean ± SEM; n = 2). (C) IL6 and IL10 mRNA levels in TMD8 cells treated with 1 μM M1i-124 or M1i-124d1 (mean ± SEM; n = 6). […] Statistical analyses were performed using 1-way ANOVA and Dunnett’s multiple-comparison test. **P < 0.01, ***P < 0.001, ****P < 0.0001.

SMILES	IL-6 protein (normalized) (TMD8 cells; TMD8, Dose (µM) 0.01)	IL-10 protein (normalized) (TMD8 cells; TMD8, Dose (µM) 0.01)	IL-6 protein (normalized) (TMD8 cells; TMD8, Dose (µM) 0.03)	IL-10 protein (normalized) (TMD8 cells; TMD8, Dose (µM) 0.03)	IL-6 protein (normalized) (TMD8 cells; TMD8, Dose (µM) 0.1)	IL-10 protein (normalized) (TMD8 cells; TMD8, Dose (µM) 0.1)	IL-6 protein (normalized) (TMD8 cells; TMD8, Dose (µM) 0.3)	IL-10 protein (normalized) (TMD8 cells; TMD8, Dose (µM) 0.3)	IL-6 protein (normalized) (TMD8 cells; TMD8, Dose (µM) 1)	IL-10 protein (normalized) (TMD8 cells; TMD8, Dose (µM) 1)	IL-6 protein (normalized) (TMD8 cells; TMD8, Dose (µM) 3)	IL-10 protein (normalized) (TMD8 cells; TMD8, Dose (µM) 3)	IL-6 and IL-10 secretion (TMD8 cells)	IL-6 and IL-10 secretion (OCI-Ly3 cells [1])	IL-6 protein (normalized) (OCI-Ly3 cells [1]; dose 0.01 µM)	IL-10 protein (normalized) (OCI-Ly3 cells [1]; dose 0.01 µM)	IL-6 protein (normalized) (OCI-Ly3 cells [1]; dose 0.03 µM)	IL-10 protein (normalized) (OCI-Ly3 cells [1]; dose 0.03 µM)	IL-6 protein (normalized) (OCI-Ly3 cells [1]; dose 0.1 µM)	IL-10 protein (normalized) (OCI-Ly3 cells [1]; dose 0.1 µM)	also measured
O=S(=O)(NCc1ccc2c(c1)OCO2)c1ccc(Cc2ccc(S(=O)(=O)NCc3ccc4c(c3)OCO4)cc2)cc1 [M1i-124]	95.9364 and 102.213 and 93.8323	92.0215 and 104.795 and 93.5401	87.0698 and 93.9663 and 88.6054	92.6437 and 90.5031 and 81.0478	69.9434 and 74.7992 and 78.3531	68.4368 and 67.4137 and 68.4567	69.7251 and 64.7937 and 50.8437	56.1427 and 56.6527 and 44.4473	36.3116 and 40.2609 and 34.3135	37.7839 and 38.0405 and 34.7537	26.8371 and 27.7392 and 25.9151	23.1611 and 23.3192 and 20.6767	dose-dependent reduction of IL-6 and IL-10 secretion	dose-dependent reduction of IL-6 and IL-10 secretion	107.046 and 97.7137 and 87.0295	103.16 and 104.534 and 97.5052	96.5093 and 109.876 and 83.6147	91.281 and 93.6459 and 78.8249	75.4106 and 89.2481 and 95.3244	87.8156 and 90.4046 and 87.8267	IC50 (TMD8 cells; Homo sapiens, cell-based assays measuring functional MALT1 inhibition, span over cytokines and cell lines (TMD8, OCI-Ly3; Supplemental Table 1)): 500 to 1300 nM; IL-6 protein (normalized) (OCI-Ly3 cells [1]; dose 0.3 µM): 61.7285 and 64.3367 and 64.4209; IL-10 protein (normalized) (OCI-Ly3 cells [1]; dose 0.3 µM): 53.7308 and 68.0081 and 65.3126; IL-6 protein (normalized) (OCI-Ly3 cells [1]; dose 1 µM): 45.5755 and 29.5412 and 43.2472; IL-10 protein (normalized) (OCI-Ly3 cells [1]; dose 1 µM): 42.8574 and 34.5822 and 37.4365; IL-6 protein (normalized) (OCI-Ly3 cells [1]; dose 3 µM): 32.8587 and 36.4245 and 37.9702; IL-10 protein (normalized) (OCI-Ly3 cells [1]; dose 3 µM): 27.1129 and 25.9246 and 27.6249; IC50 (OCI-Ly3 cells [2]): 0.7 µM
COc1ccc(CNS(=O)(=O)c2ccc(Cc3ccc(S(=O)(=O)NCc4ccc(OC)cc4)cc3)cc2)cc1 [M1i-124d1]	93.5197 and 93.7514 and 94.5387	69.769 and 89.382 and 96.8917	91.3047 and 88.3022 and 85.704	62.2564 and 54.1514 and 73.6549	77.5452 and 70.6916 and 62.4629	60.4815 and 45.5606 and 38.3417	55.6968 and 55.4486 and 52.1775	40.1613 and 36.3491 and 28.9939	45.5895 and 45.5473 and 39.027	29.9544 and 27.9974 and 29.4587	41.6763 and 36.3341 and 29.5994	27.5683 and 24.6599 and 35.0793	dose-dependent reduction of IL-6 and IL-10 secretion	dose-dependent reduction of IL-6 and IL-10 secretion	99.5607 and 97.9207 and 112.031	79.7769 and 92.2916 and 96.3976	98.1802 and 88.2708 and 79.406	92.2982 and 70.1649 and 75.2443	82.137 and 88.0559 and 90.8694	78.4383 and 79.1463 and 60.8949	IL-6 protein (normalized) (OCI-Ly3 cells [1]; dose 0.3 µM): 78.0338 and 77.6618 and 76.9556; IL-10 protein (normalized) (OCI-Ly3 cells [1]; dose 0.3 µM): 68.3626 and 76.063 and 76.9269; IL-6 protein (normalized) (OCI-Ly3 cells [1]; dose 1 µM): 82.5608 and 76.3464 and 79.062; IL-10 protein (normalized) (OCI-Ly3 cells [1]; dose 1 µM): 58.0215 and 44.447 and 56.2881; IL-6 protein (normalized) (OCI-Ly3 cells [1]; dose 3 µM): 67.8445 and 70.7121 and 79.6228; IL-10 protein (normalized) (OCI-Ly3 cells [1]; dose 3 µM): 43.78 and 51.6743 and 38.3491; IC50 (OCI-Ly3 cells [2]): 2.2 µM
